Columns and labels:
Foxp3 = Foxp3 expression in stimulated CD4+ T cells by real-time RT-PCR; type: cell-based, mice; conditions: approximately 50 μM; mouse spleen CD4+ T cells stimulated by anti-CD3 and anti-CD28
Protocol: CD4^+ T cells were obtained from the spleens of mice, and each group of the CD4^+ Tcells with a concentration of approximately 1×10^6 ml^−1 was suspended in Iscove's modified Dulbecco's medium (IMDM) supplemented with 10% fetal bovine serum (Gibco, USA). The CD4^+ T cells were stimulated by antibodies of anti-CD3 (BD Bioscience, USA) and anti-CD28 (BD Bioscience, USA) and cultured at a cell incubator maintained with 5% CO2 at 37° C. The entire RNA was extracted using RNA-Bee solution (Tel-test, USA) and then reverse transcribed into cDNA through the known method as described by McIntyre et al. (Arthritis Rheum., 48(9), pp. 2652-2659, 2003). Afterwards, the level of mRNA expression was estimated by a real-time quantitative PCR with SYBR Green I (Roche, USA). Each reaction was run in triplicate using SYBR Green PCR Master Mix (Roche, USA) according to the manufacturer's protocol. […] At this time, the PCR was performed sequentially at 94° C. for 30 seconds, at 58° C. for 30 seconds, and at 72° C. for 30 seconds. This cycle of PCR was repeated 40 times.

[1] = test system: allogenic human leukocytes; assay: Mixed leukocyte reaction (MLR), 3H-TdR incorporation; type: cell-based; conditions: for cpm (3H-TdR incorporation, lymphocyte proliferation) as % of the control group: approximately 50 μM, 5 days incubation
Protocol: Leukocytes were separated from peripheral blood of two allogenic volunteers, and then suspended with a concentration of approximately 2×10^6 ml^−1 in IMDM supplemented with 10% fetal bovine serum (Gibco, USA). 100 μl of each cell suspension was added and mixed in the each well of 96-well cell culture plate. Afterwards, saline solution was added to a control group, while chebulagic acid or punicalagin, which was diluted with saline solution by 2-fold, was added to treatment groups. Then, the plates were incubated with 5% CO2 at 37° C. for 5 days. 20 μl (approximately 0.5 μCi) of tritiated thymidine (^3H-TdR) was added to each well and incubated for 8 hours.
After the incubation, the leukocytes at each well were adsorbed on a glass fiber filter by a cell harvester (Cambridge, USA) and dried thereafter. Using Scintillation beta counter (Packard, USA), an amount of ^3H-TdR incorporated within the cells was measured in a cpm value. This measurement indicates the level of lymphocyte proliferation, which-is illustrated in FIG. 2.
In FIG. 2, CsA represents a group with 1 μM of cyclosporin A used as a positive standard specimen. The concentration of each chebulagic acid and punicalagin was approximately 50 μM. Each of the experimental data was expressed as average±standard error with a p* value of less than 0.05.

[2] = test system: collagen-induced arthritis; assay: Collagen-induced arthritis (CIA), therapeutic dosing model; type: in vivo, mice; conditions: 20 mg/kg i.p. daily for 3 weeks after arthritis induced (after day 63); within 1 week of therapeutic administration
Protocol: (§1) As introduced in an article by Luross and Williams (Immunology, 103(4), pp. 407-416, 2001), a mice model with collagen-induced arthritis (CIA) was used to check whether compounds with a DP or HHDP structure had immune regulatory effects on the chronic inflammation or autoimmune diseases. Male DBA/1J mice, which were 7 to 9 weeks old (SLC Co., Japan), received a subcutaneous injection at the base of tails with approximately 200 μg of bovine type II collagen (CII) in complete Freund's adjuvant (CFA) on days 0 and 21 to induce systemic autoimmune arthritis. […]
For the therapeutic doing model, another experiment was performed separately from the above experiment for the prophylactic dosing model. […] During 3 weeks of the treatment period, a degree of arthritis of the mice was measured for every interval of 3 to 4 days. […] Each of the experimental data was expressed as average±standard error with a P* value of less than 0.05.
(§2) The daily observed arthritis degree of mice was scored for each paw as follows: 0=normal, 1=slight erythema and edema, 2=increased edema with loss of landmarks, 3=severe edema, and 4=severe edema with ankylosis on flexion. […] Each group was then assigned an arthritic score expressed as a mean articular index.

skin allograft = assay: Skin allograft between allogenic mice; type: in vivo; conditions: 20 mg/kg i.p. daily; Balb/c skin grafted to C57B1/6 mouse
Protocol: To verify that compounds with a DP or HHDP structure are capable of suppressing a transplantation rejection response or a graft-versus-host disease directly in vivo, a skin graft was performed between allogenic mice and then chebulagic acid was treated to estimate the level of suppression against the tissue transplantation (Schwoebel et al., Lab Anim., 39(2), pp. 209-214, 2005).
Skin tissues including the derma (e.g., approximately 1 cm×approximately 1 cm) from the back of a Balb/c mouse (Samtaco, Korea) and a C57B1/6 mouse (Samtaco, Korea) were isolated while being anesthetized. The skin tissue of the Balb/c mouse was grafted to the back of the C57B1/6 mouse. After the next day of the skin graft, the treatment group and the control group received the daily intraperitoneal injection of 20 mg/kg of chebulagic acid and saline solution, respectively. It was checked whether the grafted skin tissues in the control group and the treatment group were normal or necrotized.

ovalbumin-induced asthma = assay: Ovalbumin-induced asthma (OIA), blood IgE level; type: in vivo; conditions: 20 mg/kg i.p. daily for two weeks; Balb/c mice
Protocol: The immune regulation effects by compounds with a DP structure, preferably a HHDP structure, were estimated through a mice model with ovalbumin-induced asthma (OIA).
Balb/c mice (Samtaco, Korea) received an intraperitoneal injection of ovalbumin on days 0 and 14, and a solution of 1% ovalbumin was sprayed daily for 20 minutes on days 30, 32 and 34. 20 mg/kg of chebulagic acid was daily injected intraperitoneally for two weeks and bloods were taken to estimate the IgE level to check whether chebulagic acid had efficacy for the mice with the hypersensitive inflammatory disease.

[3] = test system: collagen-induced arthritis; assay: Collagen-induced arthritis (CIA), prophylactic dosing model; type: in vivo; conditions: 10 mg/kg and 20 mg/kg i.p. daily for 3 weeks (day 22 to day 42); DBA/1J mice
Protocol: as §1
For the prophylactic dosing model, the control group and the treatment groups respectively received an intraperitoneal injection of saline solution and 10 mg/kg and 20 mg/kg of chebulagic acid daily for 3 weeks (from day 22 to day 42). A degree of arthritis of the mice was measured for every interval of 3 to 4 days from day 22 to day 63. […] Each of the experimental data was expressed as average±standard error with a P* value of less than 0.05.
as §2

[4] = test system: CD4+CD25+ regulatory T cells; assay: Regulatory T cells in inflamed synovial tissues of CIA mice (FACS, Foxp3 RT-PCR); type: in vivo; conditions: 20 mg/kg
Description: A correlation between immune regulation by chebulagic acid and regulatory T cells was studied through estimation of an increase/decrease in the number of regulatory T cells in inflamed synovial tissues of the mice with collagen-induced arthritis set in specific groups in Example 3. The knee joints of the limbs with edema were isolated and the surrounding muscle, patellar ligament and patella were removed to obtain the synovial tissues. Each of the synovial tissues was cut into small pieces and incubated twice in a buffer solution at 37° C. for 30 minutes. The buffer solution includes approximately 1 μg/ml collagenase type VI (Sigma, USA), 2% fetal bovine serum (Gibco, USA) and 1 mM EDTA (Sigma, USA). The cells of the isolated synovial tissues were collected and stained with anti-CD4-FITC antibodies (BD Bioscience, USA) and anti-CD25-PE antibodies (BD Bioscience, USA) for fluorescence-activated cell sorter (FACS) analysis (BD Bioscience, USA).

[5] = synovial tissues of mice with arthritis

**Q.** For `O=C1OC2C(O)OC3COC(=O)c4cc(O)c(O)c(O)c4-c4c(O)c(O)c5oc(=O)c6c(c(O)c(O)c7oc(=O)c4c5c76)-c4c(cc(O)c(O)c4O)C(=O)OC3C2OC(=O)c2cc(O)c(O)c(O)c2-c2c1cc(O)c(O)c2O` (centres unmarked) [punicalagin], which “increased amount of Foxp3 expression compared with the control group” value (“increased amount of Foxp3 expression” for short) (Foxp3) is on record?
**A.** approximately 737%

**Q.** What about the “cpm (3H-TdR incorporation, lymphocyte proliferation) as % of the control group” value [1] of the same molecule?
**A.** approximately 34.1%

**Q.** How did the “increased amount of Foxp3 expression” value (Foxp3) turn out when `O=C(O[C@@H]1O[C@@H]2COC(=O)c3cc(O)c(O)c(O)c3-c3c(cc(O)c(O)c3O)C(=O)O[C@H]([C@H]1O)[C@@H]2O)c1cc(O)c(O)c(O)c1` [corilagin] was run?
**A.** approximately 350%

**Q.** How did the arthritis progression [2] turn out when `O=C(O)C[C@@H]1C(=O)O[C@H]2[C@@H]3OC(=O)c4cc(O)c(O)c(O)c4-c4c(cc(O)c(O)c4O)C(=O)OC[C@H]2O[C@@H](OC(=O)c2cc(O)c(O)c(O)c2)[C@@H]3OC(=O)c2cc(O)c(O)c3c2[C@H]1[C@H](O)C(=O)O3` [chebulagic acid] was run?
**A.** significant inhibition of the arthritis progression

**Q.** And the “success ratio and period of maintaining the tissue graft” value (skin allograft)?
**A.** increased the success ratio and period of maintaining the tissue graft

**Q.** What about the “IgE level in blood as compared with the control group OVA-Control” value (ovalbumin-induced asthma) of the same molecule?
**A.** approximately 28.5%

**Q.** What about the “onset of collagen-induced arthritis and articular index” value [3] of the same molecule?
**A.** decreased the onset of collagen-induced arthritis and the articular index

**Q.** And the “increased amount of Foxp3 expression” value (Foxp3)?
**A.** approximately 375%

**Q.** And the “suppression of lymphocyte proliferation compared with cyclosporin” value ([1]; approximately 50 μM vs 1 μM cyclosporin A)?
**A.** as effective as 1 μM cyclosporin

**Q.** What about the “cpm (3H-TdR incorporation, lymphocyte proliferation) as % of the control group” value [1] of the same molecule?
**A.** approximately 9.7%

**Q.** What about the “increase of the CD4+CD25+ T cells compared with the control group” value ([4]; CIA mice) of the same molecule?
**A.** approximately 100%

**Q.** What about the “increase of the Foxp3 expression compared with the control group” value ([4]; CIA mice) of the same molecule?
**A.** approximately 550%

**Q.** What about the “CD4+CD25+ T cell ratio (%)” value [4, 5] of the same molecule?
**A.** 5.0 ± 0.4 %

**Q.** What about the Foxp3 expression level [4, 5] of the same molecule?
**A.** 3.3 ± 0.3
